Laboratory results published in patent US9040579B2, “Combination therapy using coenzyme Q10 and a caffeic acid-derived ester” (priority 2010, dated 2015).

System: Mice that over-expressed human Cu,Zn superoxide dismutase-1 mutant G93A
Experiment: Survival of ALS model mice treated by oral gavage
Type: in vivo
Conditions: G93A SOD1 mice; single-agent control treatment; untreated mice 125 days
Protocol: Compound 1 was dissolved in a PEG solvent (30% PEG 400, 5% EtOH, 5% DMSO, 1 mg/ml). The solution was mixed with Coenzyme Q10 in liposome (5 mg/ml, NuNaturals).
Mice that over-expressed human Cu,Zn superoxide dismutase-1 mutant G93A to develop a delayed and progressive motor neuron disease similar to human amyotrophic lateral sclerosis (ALS) were used in this assay.
The mixture of Compound 1 and Coenzyme Q10 were administered by gavage (oral) once a day (final dosage: 10 mg/kg of Compound 1 and 50 mg/kg of Coenzyme Q10) to 5 mice. The average survival time for the mice was 156 days.
As control, mice were subject to Compound 1 treatment, Coenzyme Q10 treatment, or no Compound 1 or Coenzyme Q10 treatment. The average survival time was 138 days for Compound 1-treated mice, 129 days for Coenzyme Q10 treatment mice, and 125 days for no Compound 1 or Coenzyme Q10-treated mice.

| Compound | average survival time [days] |
| --- | --- |
| COC1=C(OC)C(=O)C(C/C=C(\C)CC/C=C(\C)CC/C=C(\C)CC/C=C(\C)CC/C=C(\C)CC/C=C(\C)CC/C=C(\C)CC/C=C(\C)CC/C=C(\C)CCC=C(C)C)=C(C)C1=O [Coenzyme Q10] | 129 |
| O=C(/C=C/c1ccc(O)c(O)c1)OCCc1ccccc1 [Compound 1, caffeic acid phenethyl ester] | 138 |
